Read-outs that look alike come from different tables or passages of the source.

Common to all, as to format: cell-based, human
For test [1], the system named is beige adipocytes. Nature of the test: High-throughput primary screen, lipolysis assay (glycerol release), 384-well. The conditions noted are these: 20 μM, 24 hours of drug treatment, vs untreated beige adipocytes. Here is the method: ADSCs were seeded at 5000 cell/cm^2 in 12-well plates, grown for 5 days and then induced to differentiate into GC for 20 days. […] Cells were treated with forskolin (20 μM) for indicated time periods and supernatant samples were collected. Lipolysis assay was performed with free glycerol reagent (Sigma, F6428-40ML), according to manufacturer instructions.
ADSCs were plated in 384-well plates at a density of 5000 cell/cm2 and grown to confluency over ˜4 days. Cells were then differentiated to beige adipocytes using B-8 medium for 21 days. All cell culture and incubations in the 384-well format were done at 37° C. and 5% CO2. […] The use of FDA-approved drugs may allow for re-purposing for therapeutic use.
Lipolysis assays were performed after 24 hours of drug treatment by measuring free glycerol released in the 384-well format, using the procedure described above. Absorbance for each compound was normalized to untreated control samples for each plate and calculated as a percent of the control. Cut-offs for “activating” and “inhibiting” compounds were set at 2-fold. Validation assays were performed for select compounds at a range of concentration doses.

In test [2] the test system is beige adipocytes. Nature of the test: Lipolysis validation assays of primary hits at three concentrations. The note with it: Homo sapiens, Adipocyte, 24 h; for activity at 2.2 µM: Conc. 2.2 µM; for activity at 6.7 µM: Conc. 6.7 µM; for activity at 20 µM: Conc. 20 µM; for activity at 2200 µM: Conc. 2.2 mM. In outline: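 ADSC-derived adipocytes, differentiated 20 days, incubated in DMEM with 2% fatty-acid-free BSA and Triacsin C (5 μM). Glycerol release measured after 24 h compound treatment at three concentrations, normalised to untreated control as percent; 2-fold cut-offs defined activators and inhibitors.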

For test [3], the system named is UCP1. The test can be described thus: qRT-PCR of UCP1 transcript in beige adipocytes -/+ forskolin. The note with it: beige adipocytes stimulated with FSK (20 uM). How it is done: (§1) FIG. 2A is a bar graph showing RNA expression levels by qRT-PCR for indicated genes (UCP1, DIO2) for adipose derived stem cells (ADSCs), GlucoCytes (GC), or GC with forskolin (FSK, 20 uM). FIG. 2B is a bar graph showing quantitation of immunostaining data (UCP1) from 6 independent fields of view. FIGS. 2C and 2D are bar graphs showing qRT-PCR of UCP1 of GC induced from an additional line purchased from ThermoFisher (2C) and an immortalized ADSC line purchased from ATCC (ASC52-telo) (2D). Transcript levels were determined by qRT-PCR. n=3 for each independent replicate. Data are mean+/−standard deviation. *P<0.0.05, **P<0.01, ***P<0.005. […] Cell lysates were collected at indicated days and RNA was isolated and analyzed by qRT-PCR for marker expression. […] Each line was differentiated for 21 days to beige adipocytes using B-8 medium and transcript levels of UCP1 (2Q), PPARGC1 (2R), IRF4 (2S), and ADIPOQ (2T) were measured by Taqman qRT-PCR for indicated genes +/−FSK for 6 hours (20 μM).
(§2) Cells were washed with DPBS, lysed directly on the plate and used for RNA isolation with the E.Z.N.A Total RNA Kit (Omega, R6834-02) according to manufacturer instructions. RNA quantitation was performed with the Biotek Synergy 2 plate reader and cDNA was synthesized using 1 ug of RNA with the iScript cDNA Synthesis Kit (Bio-Rad, 1708841). […]
A general note: In qPCR the cycle at which signal appears reflects the starting amount.

In test [4] the test system is DIO2. The test can be described thus: qRT-PCR of DIO2 transcript in beige adipocytes -/+ forskolin. The note with it: beige adipocytes stimulated with FSK (20 uM). Here is the method:
as §1, §2

The subject of test [5] is GC. The test can be described thus: Lipolysis assay (free glycerol) after forskolin. Here is the method:
ADSCs were seeded at 5000 cell/cm^2 in 12-well plates, grown for 5 days and then induced to differentiate into GC for 20 days. Prior to the assay, cells were washed in DPBS twice and then incubated with DMEM with 2% fatty-acid free BSA (Santa Crus, sc-500949) and Triascin C (5 μM). Cells were treated with forskolin (20 μM) for indicated time periods and supernatant samples were collected. Lipolysis assay was performed with free glycerol reagent (Sigma, F6428-40ML), according to manufacturer instructions.

For the compound `C=C[C@@]1(C)CC(=O)[C@]2(O)[C@@]3(C)[C@@H](O)CCC(C)(C)[C@@H]3[C@H](O)[C@H](OC(C)=O)[C@@]2(C)O1` [Forskolin], the “% Control (relative levels of glycerol release)” value in test [1] is given as 262.31 % control. Besides, the activity at 2.2 µM in test [2] (read-out: % of Control (2)) is 394%; in test [2] (read-out: % of Control (4)) it was 247%. In addition, the activity at 6.7 µM in test [2] (read-out: % of Control (1)) is 311%; in test [2] (read-out: % of Control (2)), 362%; in test [2] (read-out: % of Control (3)), 241%; in test [2] (read-out: % of Control (4)) it was 242%. For the same compound, the activity at 20 µM in test [2] (read-out: % of Control (1)) stood at 417%; in test [2] (read-out: % of Control (2)) it was 330%; in test [2] (read-out: % of Control (3)), 253%; in test [2] (read-out: % of Control (4)) it was 267%. Further, the values for the activity at 2200 µM in test [2] (read-out: % of Control (1)) and in test [2] (read-out: % of Control (3)) were 417% and 252%, respectively. Further, the “UCP1 transcript level compared to ADSCs” value in test [3] turned out to be 520 fold. Further, the “DIO2 transcript level compared to ADSCs” value in test [4] worked out at 130 fold. In addition, the “Increase in free glycerol in the media” value is reported as approximately 2 fold in test [5] (4 hours of FSK (20 μM)) and approximately 5 fold in test [5] (8 hours of FSK (20 μM)).

The values above are taken from patent US20220079993A1, “NON-NATURALLY OCCURRING THERMOGENIC ADIPOCYTES, METHODS OF MAKING, AND METHODS OF USE THEREOF” (University of Georgia Research Foundation, Inc., priority 2019, published 2022).
